Laboratory results: paper PMC12696353, “Structural insights into endogenous agonist selectivity of aminergic receptors from the octopamine β2 receptor” (PNAS Nexus, 2025)
Substitutions are numbered along the chain they refer to. Entries after “also recorded” stand apart in the source; their conditions may differ.

What was measured:
[1] = target: I. scapularis octβ2R (is-octβ2R) (Ixodes scapularis, UniProt A0ACM8E5E8); test: cell-based; assay type: cell-based; conditions: for Emax: AP-TGFα release
Experimental: (§1) The TGFα shedding assay was performed as previously described ([28]). […] The cells were transfected using lipofectamine 2000 with plasmids encoding alkaline phosphatase–tagged TGFα (AP-TGFα) (2.5 ng/mL), is-octβ2Rs (1 ng/mL), and Gαq/s (0.5 ng/mL). After 24 h, the cells were washed with phosphate-buffered saline and resuspended in Hank's balanced salt solution (HBSS) (supplemented with 5 mM HEPES [pH 7.4]). The cells (90 μL/well) were plated in a 96-well plate and incubated with 10 μL of HBSS solution containing various concentrations of compounds for 1 h at 37 °C. Following centrifugation (200 × g, 2 min), 80 μL of the supernatant was transferred to a separate 96-well plate. Subsequently, 80 µL of 2× para-nitrophenyl phosphate (pNPP) buffer (containing 10 mM pNPP in 40 mM Tris–HCl [pH 9.5], 40 mM NaCl, and 10 mM MgCl2) was added to both the supernatant and cell-containing plates. The optical density at 405 nm of both plates was measured before and after a 1 h incubation at room temperature using a microplate reader (SpectraMax iD3, Molecular Devices, San Jose, CA, United States). AP-TGFα release was calculated using the following formulas:
(§2) ΔOD405=OD450(1h)−OD405(0h)AP−TGFαinsupernatant(%)=(ΔOD405Sup/[ΔOD450Sup+ΔOD405Cell])×125AP−TGFαrelease(%)=AP−TGFαinsupernatantunderastimulatedcondition(%)−AP−TGFαinsupernatantunderavehicle−treatedcondition
(§3) where OD405 (0 h) and […] represent the OD405 before and after a 1 h incubation, respectively, and OD405Sup and OD405Cell represent the OD405 of supernatant and cell plates, respectively. For all pharmacological analyses, nonlinear regression curve fitting was performed with a 3-parameter sigmoid model (Hill coefficient = 1) using Prism 8 (GraphPad Software, La Jolla, CA, United States).

[2] = target: T1, is-octβ2R T60^1.41P mutant (Ixodes scapularis, UniProt A0ACM8E5E8); test: TGFα shedding assay, amitraz-resistant mutant T60^1.41P; assay type: cell-based; conditions: Table S4
T1 sequence (A0ACM8E5E8 1-384 T39P): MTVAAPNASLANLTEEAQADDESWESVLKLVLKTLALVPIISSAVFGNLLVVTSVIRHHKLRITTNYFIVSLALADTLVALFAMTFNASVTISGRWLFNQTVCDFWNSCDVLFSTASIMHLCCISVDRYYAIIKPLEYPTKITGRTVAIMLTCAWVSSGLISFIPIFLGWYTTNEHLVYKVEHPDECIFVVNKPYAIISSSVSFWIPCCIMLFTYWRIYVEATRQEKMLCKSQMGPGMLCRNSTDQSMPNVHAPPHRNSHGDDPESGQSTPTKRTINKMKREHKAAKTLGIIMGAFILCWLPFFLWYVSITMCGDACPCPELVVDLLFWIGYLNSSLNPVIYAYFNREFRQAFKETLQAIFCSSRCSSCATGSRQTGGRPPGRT
Experimental: as §1, §2, §3

[3] = target: T2, is-octβ2R N87^2.61S mutant (Ixodes scapularis, UniProt A0ACM8E5E8, N87S); test: TGFα shedding assay, amitraz-resistant mutant N87^2.61S; assay type: cell-based; conditions: Table S4
T2 sequence (A0ACM8E5E8 1-384 N87S): T1 sequence (A0ACM8E5E8 1-384 T39P) with P39T, N87S
Experimental: as §1, §2, §3

[4] = target: T3, is-octβ2R Y215^5.58H mutant (Ixodes scapularis, UniProt A0ACM8E5E8, Y215H); test: TGFα shedding assay, amitraz-resistant mutant Y215^5.58H; assay type: cell-based
T3 sequence (A0ACM8E5E8 1-384 Y215H): T1 sequence (A0ACM8E5E8 1-384 T39P) with P39T, Y215H
Experimental: as §1, §2, §3

[5] = tested on: is-octβ2R Y215^5.58H mutant; test: as above; assay type: cell-based, Ixodes scapularis; conditions: versus wild type
Experimental: as §1, §2, §3

[6] = tested on: is-octβ2R D110^3.32A mutant; test: TGFα shedding assay, mutant D110^3.32A; assay type: cell-based, Ixodes scapularis; conditions: Table S6
Experimental: as §1
(§4) ΔOD405=OD450(1h)−OD405(0h)AP−TGFαinsupernatant(%)=(ΔOD405Sup/[ΔOD450Sup+ΔOD405Cell])×125AP−TGFαrelease(%)=AP−TGFαinsupernatantunderastimulatedcondition(%)−AP−TGFαinsupernatantunderavehicle−treatedcondition […]

[7] = tested on: is-octβ2R D110^3.32N mutant; test: TGFα shedding assay, mutant D110^3.32N; assay type: cell-based, Ixodes scapularis; conditions: Table S6
Experimental: as §1, §4

[8] = tested on: is-octβ2R F189^45.52A mutant; test: TGFα shedding assay, mutant F189^45.52A; assay type: cell-based, Ixodes scapularis; conditions: Table S6
Experimental: as §1, §4

[9] = tested on: is-octβ2R S199^5.42A mutant; test: TGFα shedding assay, mutant S199^5.42A; assay type: cell-based, Ixodes scapularis
Experimental: as §1, §2, §3

[10] = tested on: is-octβ2R Y307^6.55A mutant; test: TGFα shedding assay, mutant Y307^6.55A; assay type: cell-based, Ixodes scapularis; conditions: Table S6
Experimental: as §1, §4

[11] = HEK293, 1 h, Table S2, wild type, HEK293 cells, mean ± SEM, n = 3
[12] = logEC50, Table S2, wild type, HEK293 cells, mean ± SEM, n = 3

Structure (SMILES)	Emax ([1]; 1 h, Table S4, WT)	Emax ([1]; 1 h, Table S6, WT)	Emax [1, 11]	EC50 ([1]; LogEC50, Table S4, WT)	EC50 [1, 12]	EC50 [2]	EC50 [3]	EC50 [4]	change of EC50 by the Y215^5.58H mutation [5]	reduction of maximal response (Emax) by the Y215^5.58H mutation [5]	logEC50 [6]	logEC50 [7]	logEC50 [8]	logEC50 ([9]; Table S6)	logEC50 [10]	EC50 ([1]; logEC50, Table S6, WT)	potency (EC50) relative to the other TDAs ([1]; wild type, order octopamine > tyramine > noradrenaline > dopamine)	logEC50 ([9]; Table S6, listed as octopamine)
CN/C=N/c1ccc(C)cc1C [DPMF, N-2,4-dimethylphenyl-N′-methylformamidine]	21 ± 1%	25 ± 0.7%	24 ± 0.6%	7.94 nM	3.98 nM	7.94 nM	7.94 nM	6.31 nM	unaffected	~50%	no activity	no activity	no activity	signal observed only at 10-5 M; also recorded: signal observed only at 10^−5 M	no activity			
NCC(O)c1ccc(O)cc1 (stereo not drawn) [Octopamine, octopamine]	23 ± 0.8%	27 ± 1.5%	27 ± 0.7%	10 nM	20 nM	10 nM	10 nM	15.8 nM	4 fold	~50%	no activity	no activity	no activity	signal observed only at 10-5 M	no activity	25.1 nM	highest potency	signal observed only at 10^−5 M
